The values below come from US6376497B1, “Antifungal azole derivatives having a fluorinated vinyl group and process for preparing same” (Korea Research Institute of Chemical Technology, priority 1999, dated 2002).

Common to all, as to test: In vitro antifungal activity, microbroth dilution MIC
What all share (type): cell-based

The subject of assay [1] is Aspergillus furnigatus B. 19119. As to conditions: A furnigatus B. 19119, RPMI-1640, 35° C., 4 to 48 hours. The procedure:
(§1) In vitro antifungal activities of the inventive antifungal compounds were evaluated using the test strains shown in Table VIII by the following microbroth dilution method which is a modified version of the procedure recommended by National Committee for Clinical Laboratory Standards(see National Committee for Clinical Laboratory Standards, 1992, Reference methods for broth dilution antifungal susceptibility testing of yeasts, Proposed standard M27-P, National Committee for clinical laboratory standards, Villanova, Pa; and National Committee for Clinical Laboratory Standards, 1995, Reference methods for broth dilution antifungal susceptibility testing of yeasts. Tentative standard M27-T, National Committee for clinical laboratory standards, Villanova, Pa).
(§2) Sabourad Dextrose Agar(Difco) was used as a culture medium, and RPMI-1640 broth(Sigma. Co. w/L-glutamine, wo/NaHCO3)(0.165 M MOPS, pH 7.0), as a dilution medium.
(§3) Each of the test strains were subcultured in Sabourad Dextrose Agar medium twice and a stain sample was taken from prominent colonies and suspended in sterile physiological saline solution in a cap tube. The turbidity of the suspension was adjusted to that of the Mcfarland 0.5 standard sample(approximately 10^6 CFU/ml). Then the suspension was diluted 500-fold with sterile RPMI-1640 liquid medium to 2×10^3 CFU/ml.
(§4) Each of the test compounds(the compounds obtained in Examples 1 to 150 and comparative compounds, i.e., fluconazole(FCZ) and itraconazole (ICZ)), was dissolved in DMSO to give a stock solution having a concentration of 4000 μg/ml and the stock solution was successively diluted to obtain test solutions having test compound concentrations of 200, 100, 50, 25, 12.5, 6.25, 3.13, 1.56, 0.78, 0.39, 0.20 and 0.10 μg/ml, respectively.
(§5) 0.1 ml portion of the test solutions were added to the wells of a sterile 96 well plate. Then, 0.1 ml portion of each of the test strain solutions were added successively to the wells and the plate was incubated at 35° C. for 4 to 48 hours.
(§6) Minimal inhibitory concentration(MIC) of each compound was defined as the concentration of the test compound where no growth of the strain could be observed.

Assay [2] relates to Aspergillus niger A. 16404. As to conditions: A. niger A. 16404, RPMI-1640, 35° C., 4 to 48 hours. The procedure: as §1, §2, §3, §4, §5, §6
For assay [3], the system named is Candida albicans A. 10231. The settings on record: C. albicans A. 10231, RPMI-1640, 35° C., 4 to 48 hours. The procedure:
as §1, §2, §3, §4, §5, §6

Assay [4] relates to Candida albicans C1-2. As to conditions: C. albicans C1-2, RPMI-1640, 35° C., 4 to 48 hours. The procedure: as §1, §2, §3, §4, §5, §6
Assay [5] relates to Candida albicans IFO. 1385. The settings on record: C. albicans IFO. 1385, RPMI-1640, 35° C., 4 to 48 hours. The procedure:
as §1, §2, §3, §4, §5, §6

Assay [6] deals with Candida krusei K. 11655. As to conditions: C. krusei K. 11655, RPMI-1640, 35° C., 4 to 48 hours. The procedure:
as §1, §2, §3, §4, §5, §6

The test system of assay [7] is Candida parapsitosis A. 7330. As to conditions: C. parapsitosis A. 7330, RPMI-1640, 35° C., 4 to 48 hours. The procedure: as §1, §2, §3, §4, §5, §6
The test system of assay [8] is Candida pseudotropicalis K. 11658. As to conditions: C. pseudotropicalis K. 11658, RPMI-1640, 35° C., 4 to 48 hours. The procedure: as §1, §2, §3, §4, §5, §6
Assay [9] relates to Candida tropicalis A. 13803. As to conditions: C. tropicalis A. 13803, RPMI-1640, 35° C., 4 to 48 hours. The procedure:
as §1, §2, §3, §4, §5, §6

Assay [10] concerns Cryptococcus neoformans A. 34144. The settings on record: Cry. neoformans A. 34144, RPMI-1640, 35° C., 4 to 48 hours. The procedure:
as §1, §2, §3, §4, §5, §6

In assay [11] the test system is Cryptococcus neoformans B. 42419. As to conditions: Cry. neoformans B. 42419, RPMI-1640, 35° C., 4 to 48 hours. The procedure: as §1, §2, §3, §4, §5, §6
Assay [12] has as its system Cryptococcus neoformans IFM. 40092. As to conditions: Cry. neoformans IFM. 40092, RPMI-1640, 35° C., 4 to 48 hours. The procedure: as §1, §2, §3, §4, §5, §6
The test system of assay [13] is Torulopsis glabrata B. 16205. The settings on record: T. glabrata B. 16205, RPMI-1640, 35° C., 4 to 48 hours. The procedure:
as §1, §2, §3, §4, §5, §6

The test system of assay [14] is Trichophyton mentagrophytes A. 9129. The settings on record: T. mentagrophytes A. 9129, RPMI-1640, 35° C., 4 to 48 hours. The procedure:
as §1, §2, §3, §4, §5, §6

Assay [15] concerns Trichophyton mentagrophytes B. 32663. The settings on record: T. mentagrophytes B. 32663, RPMI-1640, 35° C., 4 to 48 hours. The procedure: as §1, §2, §3, §4, §5, §6

Structures are written as SMILES. Some results are limits rather than exact numbers.

Turning to `FC(=Cc1cccc(F)c1)OCC1COC(Cn2ccnc2)(c2ccc(F)cc2F)O1` (mixture of isomers) [Ex. 48], the “Minimal inhibitory concentration (MIC)” value in assay [1] was 1.56 µg/mL; in assay [2], 6.25 µg/mL; in assay [3], 25.0 µg/mL; in assay [4], 25.0 µg/mL; in assay [5], 0.20 µg/mL; in assay [6], 25.0 µg/mL. Also, the “Minimal inhibitory concentration (MIC)” value in assay [7] was 25.0 µg/mL; in assay [8] it was 12.5 µg/mL; in assay [9], 50.0 µg/mL; in assay [10], 0.78 µg/mL; in assay [11] it was 0.78 µg/mL; in assay [12], “≦0.10 μg/ml”. The “Minimal inhibitory concentration (MIC)” value in assay [13] is 12.5 µg/mL; in [14], 0.39 µg/mL; in assay [15], “≦0.10 μg/ml”.
`FC(=Cc1ccc(F)cc1)OCC1COC(Cn2ccnc2)(c2ccc(F)cc2F)O1` (mixture of isomers) [Ex. 49]: the “Minimal inhibitory concentration (MIC)” value came to 1.56 µg/mL in assay [1]; 6.25 µg/mL in assay [2]; 25.0 µg/mL in [3]; 25.0 µg/mL in assay [4]; 0.20 µg/mL in assay [5]; 25.0 µg/mL in [6]. Moreover, the “Minimal inhibitory concentration (MIC)” value in [7] is 25.0 µg/mL; in assay [8], 12.5 µg/mL; in [9], 50.0 µg/mL; in [10], 0.78 µg/mL; in assay [11], 0.78 µg/mL; in assay [12] it was “≦0.10 μg/ml”. The “Minimal inhibitory concentration (MIC)” value in assay [13] is 12.5 µg/mL; in assay [14], 0.39 µg/mL; in [15], “≦0.10 μg/ml”.
As for `Cc1cc(C=C(F)OCC2COC(Cn3ccnc3)(c3ccc(F)cc3F)O2)ccc1Cl` (mixture of isomers) [Ex. 50], the “Minimal inhibitory concentration (MIC)” value in assay [1] turned out to be 6.25 µg/mL; in [2], 25.0 µg/mL; in [3], 12.5 µg/mL; in assay [4] it was 12.5 µg/mL; in assay [5], 0.39 µg/mL; in assay [6] it was 25.0 µg/mL. The “Minimal inhibitory concentration (MIC)” value turned out to be 12.5 µg/mL in assay [7]; 12.5 µg/mL in [8]; 25.0 µg/mL in [9]; 1.56 µg/mL in [10]; 1.56 µg/mL in [11]; 0.20 µg/mL in [12]. Also, the “Minimal inhibitory concentration (MIC)” value in [13] came to 6.25 µg/mL; in assay [14], 3.13 µg/mL; in assay [15], 0.78 µg/mL.
Regarding `FC(=Cc1cccc2ccccc12)OCC1COC(Cn2ccnc2)(c2ccc(F)cc2F)O1` (mixture of isomers) [Ex. 51], the “Minimal inhibitory concentration (MIC)” value was 3.13 µg/mL in assay [1]; 12.5 µg/mL in assay [2]; 12.5 µg/mL in assay [3]; 12.5 µg/mL in assay [4]; 0.39 µg/mL in assay [5]; 50.0 µg/mL in assay [6]. Also, the “Minimal inhibitory concentration (MIC)” value in assay [7] was above 100 µg/mL; in assay [8], 25.0 µg/mL; in [9], 25.0 µg/mL; in [10], 1.56 µg/mL; in assay [11], 1.56 µg/mL; in assay [12], 0.20 µg/mL. Besides, the “Minimal inhibitory concentration (MIC)” value in assay [13] was 6.25 µg/mL; in [14] it was 1.56 µg/mL; in assay [15] it was 0.78 µg/mL.
Turning to `FC(OCC1COC(Cn2ccnc2)(c2ccc(F)cc2F)O1)=C(c1ccccc1)C(F)(F)F` (mixture of isomers) [Ex. 52], the “Minimal inhibitory concentration (MIC)” value in [1] is 1.56 µg/mL; in assay [2] it was 6.25 µg/mL; in [3] it was 12.5 µg/mL; in assay [4], 12.5 µg/mL; in [5], 0.39 µg/mL; in assay [6] it was 100 µg/mL. Besides, the “Minimal inhibitory concentration (MIC)” value in assay [7] was above 100 µg/mL; in [8] it was 50.0 µg/mL; in assay [9] it was 50.0 µg/mL; in [10] it was 0.78 µg/mL; in assay [11] it was 0.78 µg/mL; in [12], “≦0.10 μg/ml”. The “Minimal inhibitory concentration (MIC)” value in [13] was 3.13 µg/mL; in [14], 1.56 µg/mL; in assay [15] it was 0.78 µg/mL.
For `Cc1cccc(C(=C(F)OCC2COC(Cn3ccnc3)(c3ccc(F)cc3F)O2)C(F)(F)F)c1` (mixture of isomers) [Ex. 53], the “Minimal inhibitory concentration (MIC)” value in [1] was 3.13 µg/mL; in [2], 25.0 µg/mL; in [3] it was 12.5 µg/mL; in assay [4], 25.0 µg/mL; in [5], 0.78 µg/mL; in assay [6], above 100 µg/mL. The “Minimal inhibitory concentration (MIC)” value in [7] is above 100 µg/mL; in [8], above 100 µg/mL; in assay [9] it was 100 µg/mL; in [10] it was 1.56 µg/mL; in [11], 0.78 µg/mL; in assay [12], “≦10.10 μg/ml”. Besides, the “Minimal inhibitory concentration (MIC)” value is 6.25 µg/mL in [13], 3.13 µg/mL in assay [14] and 1.56 µg/mL in assay [15].
